Source: US20050112573A1, “Method of detecting toxic substance” (priority 2001, published 2005)

Tested on: yeast genes (level of expressed mRNA)
Assay: DNA chip analysis of expressed mRNA of yeast genes after 2 h culture with a toxic chemical substance
Assay type: cell-based, Saccharomyces cerevisiae S288C
Experimental: Yeast (Saccharomyces cerevtisiae S288C (α SUC2mal mel gap2 CUP1)) were cultured at 25° C. on YPD medium (yeast extract 1%, polypepton 2%, glucose 2%). One of toxic chemical substances was added to the cell at logarithmic growth phase, and the cell was further cultured for two hours. Cell was cultured without any chemical substance in the same condition, and was used as control. Concentrations of the chemical substances were defined to inhibit the growth of the yeast but not lead to death.
After the completion of cultivation, the culture was centrifuged to collect the cells. To the cells, sodium acetate buffer (50 mM sodium acetate, 10 mM EDTA, 1% SDS) was added, and the mixture was shaken at 65° C. for five minutes, followed by returning to room temperature, and obtaining the supernatant, which procedure was repeated two times. To the supernatant, ½ amount of a solution of phenol/chloroform was added, and the mixture was centrifuged to give a supernatant, which was added with an equal amount of chloroform, and the mixture was centrifuged to give a supernatant. To the supernatant, an equal amount of isopropanol containing 0.3 M sodium acetate was added, and the mixture was allowed to stand at room temperature for 30 minutes, after which the mixture was centrifuged to give a sediment of the whole RNAs. Seventy % ethanol was added to the sediment, and the mixture was again centrifuged to give a sediment, which was then dried and dissolved in water. mRNA was isolated from the whole RNAs as followings. In view of the fact that a poly A chain is attached to the 3′ terminus of mRNA, a polynucleotide having a poly T structure which was immobilized on the surface of latex beads was used to trap the mRNA, and then the mRNA was washed and eluted with spine column (Oligotex-dT30<Super>mRNA Purification Kit, Takara). Reverse transcription of the mRNA was conducted with a reverse transcriptase (Super Script II Reverse Transcriptase; catalogue No. 18064-014, GibcoBRL) using fluorescence-labeled nucleotides to give cDNAs that were introduced with Cy3-dUTP or Cy5-dUTP during the reverse transcription.
The labeled cDNAs were dissolved in TE buffer (10 mM Tris-HCl/1 mM EDTA, pH8.0), and the solution was dropped on the DNA chip containing the whole genes of yeast (DNA Chip Research Inc. Japan) so that the cDNAs were hybridized on the DNA chip at 65° C. for over 12 hours. The fluoresces intensity of the DNA chip was read with a scanner, and the ratio relative to the fluorescence intensity resulting from the absence of chemical substance was estimated as the following, which is shown in Tables 1 to 9: [formula]
In the Tables, “Intensity” indicated in the rightmost column is a value of the level of expressed mRNA of each gene in control cells as divided by the average level of the expressions of the whole genes.

Compound: CN(C)C(=S)SSC(=S)N(C)C [(10), Tetramethylthiuram disulfide]
- The level of expressed mRNA in the presence of chemical substance/The level of expressed mRNA in the absence of chemical substance (yeast gene YAR010C): 1.1
- The level of expressed mRNA in the presence of chemical substance/The level of expressed mRNA in the absence of chemical substance (yeast gene YBL005W-A): 1.5
- The level of expressed mRNA in the presence of chemical substance/The level of expressed mRNA in the absence of chemical substance (yeast gene YBL041W): 2.6
- The level of expressed mRNA in the presence of chemical substance/The level of expressed mRNA in the absence of chemical substance (yeast gene YBL043W): 14.7
- The level of expressed mRNA in the presence of chemical substance/The level of expressed mRNA in the absence of chemical substance (yeast gene YBL078C): 15.2
- The level of expressed mRNA in the presence of chemical substance/The level of expressed mRNA in the absence of chemical substance (yeast gene YBR214W): 3.5
- The level of expressed mRNA in the presence of chemical substance/The level of expressed mRNA in the absence of chemical substance (yeast gene YCL020W): 2.4
- The level of expressed mRNA in the presence of chemical substance/The level of expressed mRNA in the absence of chemical substance (yeast gene YCL027W): 16.3
- The level of expressed mRNA in the presence of chemical substance/The level of expressed mRNA in the absence of chemical substance (yeast gene YCR004C): 2.1
- The level of expressed mRNA in the presence of chemical substance/The level of expressed mRNA in the absence of chemical substance (yeast gene YCR071C): 1.2
- The level of expressed mRNA in the presence of chemical substance/The level of expressed mRNA in the absence of chemical substance (yeast gene YCR088W): 0.9
- The level of expressed mRNA in the presence of chemical substance/The level of expressed mRNA in the absence of chemical substance (yeast gene YDL008W): 3.0
- The level of expressed mRNA in the presence of chemical substance/The level of expressed mRNA in the absence of chemical substance (yeast gene YDL238C): 2.7
- The level of expressed mRNA in the presence of chemical substance/The level of expressed mRNA in the absence of chemical substance (yeast gene YDR055W): 2.4
- The level of expressed mRNA in the presence of chemical substance/The level of expressed mRNA in the absence of chemical substance (yeast gene YDR084C): 0.6
- The level of expressed mRNA in the presence of chemical substance/The level of expressed mRNA in the absence of chemical substance (yeast gene YDR085C): 2.3
- The level of expressed mRNA in the presence of chemical substance/The level of expressed mRNA in the absence of chemical substance (yeast gene YDR104C): 2.7
- The level of expressed mRNA in the presence of chemical substance/The level of expressed mRNA in the absence of chemical substance (yeast gene YDR115W): 1.0
- The level of expressed mRNA in the presence of chemical substance/The level of expressed mRNA in the absence of chemical substance (yeast gene YDR259C): 1.8
- The level of expressed mRNA in the presence of chemical substance/The level of expressed mRNA in the absence of chemical substance (yeast gene YDR315C): 1.6
- The level of expressed mRNA in the presence of chemical substance/The level of expressed mRNA in the absence of chemical substance (yeast gene YDR358W): 3.2
- The level of expressed mRNA in the presence of chemical substance/The level of expressed mRNA in the absence of chemical substance (yeast gene YDR388W): 0.9
- The level of expressed mRNA in the presence of chemical substance/The level of expressed mRNA in the absence of chemical substance (yeast gene YDR432W): 0.8
- The level of expressed mRNA in the presence of chemical substance/The level of expressed mRNA in the absence of chemical substance (yeast gene YDR481C): 1.6
- The level of expressed mRNA in the presence of chemical substance/The level of expressed mRNA in the absence of chemical substance (yeast gene YDR510W): 2.5
- The level of expressed mRNA in the presence of chemical substance/The level of expressed mRNA in the absence of chemical substance (yeast gene YEL042W): 0.3
- The level of expressed mRNA in the presence of chemical substance/The level of expressed mRNA in the absence of chemical substance (yeast gene YEL066W): 2.4
- The level of expressed mRNA in the presence of chemical substance/The level of expressed mRNA in the absence of chemical substance (yeast gene YER039C): 0.8
- The level of expressed mRNA in the presence of chemical substance/The level of expressed mRNA in the absence of chemical substance (yeast gene YER107C): 0.5
- The level of expressed mRNA in the presence of chemical substance/The level of expressed mRNA in the absence of chemical substance (yeast gene YER130C): 1.3
- The level of expressed mRNA in the presence of chemical substance/The level of expressed mRNA in the absence of chemical substance (yeast gene YFL028C): 1.8
- The level of expressed mRNA in the presence of chemical substance/The level of expressed mRNA in the absence of chemical substance (yeast gene YFL043C): 3.8
- The level of expressed mRNA in the presence of chemical substance/The level of expressed mRNA in the absence of chemical substance (yeast gene YGL158W): 0.9
- The level of expressed mRNA in the presence of chemical substance/The level of expressed mRNA in the absence of chemical substance (yeast gene YGL229C): 1.7
- The level of expressed mRNA in the presence of chemical substance/The level of expressed mRNA in the absence of chemical substance (yeast gene YGR136W): 2.2
- The level of expressed mRNA in the presence of chemical substance/The level of expressed mRNA in the absence of chemical substance (yeast gene YGR189C): 0.9
- The level of expressed mRNA in the presence of chemical substance/The level of expressed mRNA in the absence of chemical substance (yeast gene YGR213C): 6.9
- The level of expressed mRNA in the presence of chemical substance/The level of expressed mRNA in the absence of chemical substance (yeast gene YGR257C): 1.9
- The level of expressed mRNA in the presence of chemical substance/The level of expressed mRNA in the absence of chemical substance (yeast gene YHR004C): 0.6
- The level of expressed mRNA in the presence of chemical substance/The level of expressed mRNA in the absence of chemical substance (yeast gene YHR071W): 7.2
- The level of expressed mRNA in the presence of chemical substance/The level of expressed mRNA in the absence of chemical substance (yeast gene YHR139C): 46.6
- The level of expressed mRNA in the presence of chemical substance/The level of expressed mRNA in the absence of chemical substance (yeast gene YHR142W): 0.9
- The level of expressed mRNA in the presence of chemical substance/The level of expressed mRNA in the absence of chemical substance (yeast gene YIL123W): 0.2
- The level of expressed mRNA in the presence of chemical substance/The level of expressed mRNA in the absence of chemical substance (yeast gene YIL140W): 0.6
- The level of expressed mRNA in the presence of chemical substance/The level of expressed mRNA in the absence of chemical substance (yeast gene YJL073W): 0.7
- The level of expressed mRNA in the presence of chemical substance/The level of expressed mRNA in the absence of chemical substance (yeast gene YJL089W): 3.9
- The level of expressed mRNA in the presence of chemical substance/The level of expressed mRNA in the absence of chemical substance (yeast gene YJL116C): 2.6
- The level of expressed mRNA in the presence of chemical substance/The level of expressed mRNA in the absence of chemical substance (yeast gene YJR004C): 0.7
- The level of expressed mRNA in the presence of chemical substance/The level of expressed mRNA in the absence of chemical substance (yeast gene YJR086W): 1.1
- The level of expressed mRNA in the presence of chemical substance/The level of expressed mRNA in the absence of chemical substance (yeast gene YKL008C): 0.4
